The values that follow come from PMC9975351 (Frontiers in Pharmacology, 2023).

Data set [1] is classed as physicochemical. Conditions: human, microsomes, 3 h. Here is the method: (§1) All other generated metabolites area was less than 1% of the parent area/internal standard area. […] HY-17542 underwent deacetylation rapidly in HLM incubated with or without NADPH (Figures 4A, B). The calculated half-lives for NADPH-dependent metabolism and NADPH-independent degradation were 5.26 and 10.83 min, respectively. We incubated HY-17542 without HLM and NADPH to 180 min in the phosphate buffer condition. […] CES 1 or 2 was possible enzyme responsible for the deacetylation. […] HY-17542 metabolites in HLM incubated with NADPH are presented in Figures 4C, D. M1 and M3 were also detected from HY-17542 in a time-dependent manner.

Data set [2] addresses T1, CES2 (Homo sapiens, UniProt O00748).
T1 construct: purchased Cypex (Dundee, UK)
T1 sequence (O00748 27-559): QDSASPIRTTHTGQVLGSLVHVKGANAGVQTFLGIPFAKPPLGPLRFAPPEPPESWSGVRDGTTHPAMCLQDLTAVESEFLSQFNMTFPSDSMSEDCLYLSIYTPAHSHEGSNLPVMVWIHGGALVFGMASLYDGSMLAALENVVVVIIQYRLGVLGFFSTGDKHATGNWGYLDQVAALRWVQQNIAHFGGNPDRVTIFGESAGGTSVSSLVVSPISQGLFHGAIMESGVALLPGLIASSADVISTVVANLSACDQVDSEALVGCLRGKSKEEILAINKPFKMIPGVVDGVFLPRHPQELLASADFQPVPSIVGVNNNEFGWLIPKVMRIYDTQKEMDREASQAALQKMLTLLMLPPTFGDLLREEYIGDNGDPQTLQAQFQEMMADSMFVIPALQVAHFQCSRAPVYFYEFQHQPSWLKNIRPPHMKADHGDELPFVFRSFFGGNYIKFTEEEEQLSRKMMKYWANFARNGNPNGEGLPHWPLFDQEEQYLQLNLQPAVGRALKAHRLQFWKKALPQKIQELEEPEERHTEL
Briefly: Incubation with recombinant CES2. In kind it is in vitro ADME. As to conditions: 1 µM. Here is the method:
as §1
(§2) FIGURE 4 Metabolic stability of HY-17542 in HLMs. (A) 1 µM of HY-17542 was incubated with HLMs in the presence or absence of NADPH and incubated with recombinant CES 1 or CES2. […] (C) Formation of M1 in the incubation of 1 µM of HY-17542 in HLMs with NADPH. (D) Formation of M3 in the incubation of 1 µM of HY-17542 in HLMs with NADPH. Data are presented as mean ± SD from three independent samples (n = 3). (E) Representative chromatogram of GRL0617 and its metabolites in the presence of a NADPH-generating system from QTOF MS analysis.

Data set [3] is described as follows: Metabolic stability and metabolite formation in pooled human liver microsomes with NADPH and/or UDPGA. The class given is in vitro ADME. As to conditions: human, microsomes, pH 7.4, Half-life. As for the experimental part:
Microsomal incubation was conducted in triplicate using 0.1 M potassium phosphate buffer (PPB, pH 7.4) in eight-well tube strips in an 8 × 12 rack (1.2 mL; VWR, Emeryville, CA, United States). […] The mixture was pre-incubated at 37°C with shaking at approximately 100 rpm for 5 min. UGT glucuronidation was performed with HLMs (1 mg/mL) and alamethicin (25 μg/mg microsomal protein) in a 100-mM PPB (pH 7.4) solution on ice for 15 min. […] CYP, UGT, and combined reactions were initiated by addition of the NADPH regenerating system, UDPGA (1 mM), and both, respectively. […] The incubation mixtures were then centrifuged at 2,000 × g and 4°C for 20 min, and the supernatants were analyzed by LC-QTOF HRMS.
The incubation mixtures were pre-incubated at 37°C in a shaking water bath at approximately 100 rpm for 5 min. Reactions were initiated by the addition of an NADPH-regenerating system. The reaction was terminated, centrifuged then analyzed using the same method described above.
(§3) In the microsomal stability analysis, degradation half-life (t½) values were calculated using the following equation: t½=0.693/k where k is the first-order degradation rate constant, estimated by one-phase exponential-decay non-linear regression of the degradation time-course data using Graph Pad Prism 8.0 (Graph Pad Software Inc., San Diego, CA, United States). In vitro metabolic stability parameters, microsomal intrinsic clearance (CLint,mic), apparent intrinsic clearance (CL′int), and hepatic clearance (CLh), were calculated according to the well-stirred model approach ([Pang and Rowland, 1977]; [Baranczewski et al., 2006]). The apparent kinetic parameters of GRL0617 metabolism were determined by fitting a one-enzyme Michaelis-Menten equation. […] All data are presented as mean ± SD. Data were compared between groups using the unpaired Student’s t-test. The significance level was set at p < 0.05, unless indicated otherwise.

The target of data set [4] is T2, CES1 (Homo sapiens, UniProt P23141).
T2 construct: purchased Cypex (Dundee, UK)
T2 sequence (P23141 18-567): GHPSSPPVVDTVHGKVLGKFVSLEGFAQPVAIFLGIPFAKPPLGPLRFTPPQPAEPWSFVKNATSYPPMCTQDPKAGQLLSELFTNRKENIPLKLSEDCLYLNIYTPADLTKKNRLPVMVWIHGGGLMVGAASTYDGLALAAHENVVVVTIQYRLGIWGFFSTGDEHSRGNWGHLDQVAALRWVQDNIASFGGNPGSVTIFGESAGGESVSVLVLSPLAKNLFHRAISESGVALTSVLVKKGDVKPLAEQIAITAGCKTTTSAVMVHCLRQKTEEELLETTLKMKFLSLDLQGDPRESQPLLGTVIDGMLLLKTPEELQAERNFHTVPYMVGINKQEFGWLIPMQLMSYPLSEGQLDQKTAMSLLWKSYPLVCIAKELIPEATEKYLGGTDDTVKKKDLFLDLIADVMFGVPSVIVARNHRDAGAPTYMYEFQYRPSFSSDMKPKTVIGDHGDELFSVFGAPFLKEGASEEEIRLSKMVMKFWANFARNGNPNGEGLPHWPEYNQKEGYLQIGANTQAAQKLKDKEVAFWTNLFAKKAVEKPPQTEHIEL
The data set can be described thus: Incubation with recombinant CES1. In kind it is in vitro ADME. As to conditions: 1 µM. As for the experimental part: as §1, §2

Substrate in data set [5]: Cc1ccc(N)cc1C(=O)N[C@H](C)c1cccc2ccccc12
The data set can be described thus: not read. In kind it is in vitro ADME, human. As to conditions: other: M1 formation, recombinant CYP3A5, 10 min; 95% CI in parentheses; pH 7.4; 37.0 °C. As for the experimental part:
Reactions were conducted in triplicate using 0.1 M PPB (pH 7.4) in eight-well tube strips in an 8 × 12 rack. […] The mixture was pre-incubated at 37°C with shaking at approximately 100 rpm for 5 min. Reactions were initiated by the addition of the NADPH-regenerating system and quenched with 200 µL ice-cold acetonitrile containing 50 nM CBZ. The samples were centrifuged at 1,000 × g and 4°C for 20 min, and the supernatants were subjected to LC-QTOF HRMS. […] The reaction was incubated, initiated, terminated, centrifuged then analyzed using the same method described above.
as §3, with “Data were compared between groups using the unpaired Student’s t-test. The significance level was set at p < 0.05, unless indicated otherwise.” left out

Substrate in data set [6]: Cc1ccc(N)cc1C(=O)N[C@H](C)c1cccc2ccccc12
Briefly: not read. Conditions: other: M1 formation, recombinant CYP2D6, 10 min; 95% CI in parentheses; pH 7.4; 37.0 °C.

Turning to `CC(=O)Nc1ccc(C)c(C(=O)N[C@H](C)c2cccc3ccccc23)c1` [HY-17542, 5-[acetylamino]-2-methyl-N-[(1R)-1-(1-naphthalenyl)ethyl]benzamide], the Remaining compound in data set [1] turned out to be 99.89 ± 7.69%. Besides, in data set [2], the HY-17542 concentration remaining stood at 88.01 ± 10.5%. Further, the values for the half-life at 1 µM in data set [3] and in data set [3] (NADPH-independent degradation) were 5.26 min and 10.8 min, respectively. Also, the “Effect on HY-17542 concentration” value in data set [4] is recorded as “did not affect HY-17542 concentration”.

B1: CYP3A5 (Homo sapiens) (protein)
chain: MDLIPNLAVETWLLLAVSLVLLYLYGTRTHGLFKRLGIPGPTPLPLLGNVLSYRQGLWKFDTECYKKYGKMWGTYEGQLPVLAITDPDVIRTVLVKECYSVFTNRRSLGPVGFMKSAISLAEDEEWKRIRSLLSPTFTSGKLKEMFPIIAQYGDVLVRNLRREAEKGKPVTLKDIFGAYSMDVITGTSFGVNIDSLNNPQDPFVESTKKFLKFGFLDPLFLSIILFPFLTPVFEALNVSLFPKDTINFLSKSVNRMKKSRLNDKQKHRLDFLQLMIDSQNSKETESHKALSDLELAAQSIIFIFAGYETTSSVLSFTLYELATHPDVQQKLQKEIDAVLPNKAPPTYDAVVQMEYLDMVVNETLRLFPVAIRLERTCKKDVEINGVFIPKGSMVVIPTYALHHDPKYWTEPEEFRPERFSKKKDSIDPYIYTPFGTGPRNCIGMRFALMNMKLALIRVLQNFSFKPCKETQIPLKLDTQGLLQPEKPIVLKVDSRDGTLSGE
notes: purchased Cypex (Dundee, UK); host or cells: bactosomes (bacterial membranes)
For B1, the Km in data set [5] was 8.5 (7.6–9.5) µM.

B2: CYP2D6 (Homo sapiens) (protein)
chain: MGLEALVPLAVIVAIFLLLVDLMHRRQRWAARYPPGPLPLPGLGNLLHVDFQNTPYCFDQLRRRFGDVFSLQLAWTPVVVLNGLAAVREALVTHGEDTADRPPVPITQILGFGPRSQGVFLARYGPAWREQRRFSVSTLRNLGLGKKSLEQWVTEEAACLCAAFANHSGRPFRPNGLLDKAVSNVIASLTCGRRFEYDDPRFLRLLDLAQEGLKEESGFLREVLNAVPVLLHIPALAGKVLRFQKAFLTQLDELLTEHRMTWDPAQPPRDLTEAFLAEMEKAKGNPESSFNDENLRIVVADLFSAGMVTTSTTLAWGLLLMILHPDVQRRVQQEIDDVIGQVRRPEMGDQAHMPYTTAVIHEVQRFGDIVPLGVTHMTSRDIEVQGFRIPKGTTLITNLSSVLKDEAVWEKPFRFHPEHFLDAQGHFVKPEAFLPFSAGRRACLGEPLARMELFLFFTSLLQHFSFSVPTGQPRPSHHGVFAFLVSPSPYELCAVPR
With B2, the Km in data set [6] was 85.1 (69.4–107.8) µM.
